Measurements reported in patent US7700584B2 (Hangzhou Minsheng Pharmaceuticals Co., Ltd., priority 2004, dated 2010).
Where a name gives a salt, the structure may show the parent alone. Read-outs that look alike come from different tables or passages of the source.

Legend:
293 cells = assay: Cell status of 293 cells treated with sample alone (herpes virus screening); settings: for Cytopathy and cell status, Sample: 24 hrs
[1] = tested on: SMMC-7721 human hepatic carcinoma; assay: In vitro inhibition rate to tumor cells (MTT), SMMC-7721; type: cell-based; settings: for inhibition rate, Results (%) SMMC-7721: 50 μg/ml; for inhibition at 50 µg/mL: Homo sapiens, SMMC-7721, 50 μg/ml, read-out: inhibition rate, Results (%) SMMC-7721
[2] = biological target: T1, HIV-1 integrase (HIV-1 IN) (Human immunodeficiency virus type 1 group M subtype B, UniProt P04585); assay: Screening for the activity against HIV-1 integrase; type: biochemical; settings: initial concentration 100 μg/ml
T1 construct: a purified HIV-1 integrase was added into each well; purchased
In short: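 Purified HIV-1 integrase with plate-bound 30-nt donor oligonucleotide and biotinylated 20-nt target oligonucleotide; samples tested at four 5-fold serial dilutions. Strand-transfer product detected by ELISA with biotin-labeled alkaline phosphatase, read as OD450.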

[3] = tested on: HL-60 human promyelocytic leukemia; assay: In vitro anti-tumor IC50 (MTT), HL-60; type: cell-based; settings: Homo sapiens, HL-60; Table 4; read-out: IC50 (ug/ml) against tumor cell lines, HL-60
Procedure: (1) Single cell suspension was seeded into 96-well plates (the cells was diluted in the PRMI-1640 minimum medium to 3×10^4 cells/ml, […] diluted cells/well). […] The experiments were performed in quadruplicate.
(2) The medium was removed. Solutions of the anti-tumor agents (50 compounds) were prepared in a freshly prepared medium at serial concentrations. […] of the solution was added into each well. Incubation was continued for 48 hours.
(3) 20 ug of 2 mg/ml MTT was added into each well, and incubated for 4 hours.
(4) The medium was removed from the well. The microplates were swiftly turned down to throw-off the medium. […] of DMSO was added into each well, and vortexed at room temperature for 10 minutes.
(5) OD value (λ=570 nm) was measured with an Enzyme-Linked Detector.
(6) The graph of cell vitality was plotted, and IC50 was calculated.

[4] = tested on: Hela human cervical carcinoma; assay: In vitro anti-tumor IC50 (MTT), Hela; type: cell-based; settings: Homo sapiens, HeLa; Table 4; read-out: IC50 (ug/ml) against tumor cell lines, Hela
[5] = tested on: Bel-7402 human hepatic carcinoma; assay: In vitro inhibition rate to tumor cells (MTT), Bel-7402; type: cell-based; settings: for inhibition rate, Results (%) Bel-7402: 50 μg/ml; for inhibition at 50 µg/mL: Homo sapiens, Bel-7402, 50 μg/ml, read-out: inhibition rate, Results (%) Bel-7402
[6] = tested on: MCF-7 human mammary adenocarcinoma; assay: In vitro inhibition rate to tumor cells (MTT), MCF-7; type: cell-based; settings: for inhibition rate, Results (%) MCF-7: 50 μg/ml; for inhibition at 50 µg/mL: Homo sapiens, MCF7, 50 μg/ml, read-out: inhibition rate, Results (%) MCF-7
[7] = tested on: A-549 human lung adenocarcinoma; assay: In vitro inhibition rate to tumor cells (MTT), A-549; type: cell-based; settings: for inhibition rate, Results (%) A-549: 50 μg/ml; for inhibition at 50 µg/mL: Homo sapiens, A549, 50 μg/ml, read-out: inhibition rate, Results (%) A-549
[8] = tested on: U-937 human histocytic lymphoma; assay: In vitro inhibition rate to tumor cells (MTT), U-937; type: cell-based; settings: for inhibition rate, Results (%) U-937: 50 μg/ml; for inhibition at 50 µg/mL: Homo sapiens, U-937, 50 μg/ml, read-out: inhibition rate, Results (%) U-937
[9] = tested on: LLC mouse Lewis lung carcinoma; assay: In vitro inhibition rate to tumor cells (MTT), LLC; type: cell-based; settings: 50 μg/ml; for inhibition at 50 µg/mL: Mus musculus, Lewis lung carcinoma
[10] = tested on: Hela human cervical carcinoma; assay: In vitro inhibition rate to tumor cells (MTT), Hela; type: cell-based; settings: 50 μg/ml; for inhibition at 50 µg/mL: Homo sapiens, HeLa, read-out: inhibition rate, Results (%) Hela
[11] = tested on: U-937 human histocytic lymphoma; assay: In vitro anti-tumor IC50 (MTT), U-937; type: cell-based; settings: Homo sapiens, U-937; Table 4; read-out: IC50 (ug/ml) against tumor cell lines, U-937
[12] = biological target: T2, HIV-1 proteinase (HIV-1 PR) (Human immunodeficiency virus type 1 group M subtype B, UniProt P04585); assay: Screening for in vitro activity against HIV-1 proteinase; type: biochemical; settings: for IC50: IC50, five 5× serial dilutions from 50 μg/ml
T2 construct: HIV-1 proteinase digests the fluorescent-labeled substrate; purchased
In short: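 Recombinant HIV-1 PR cleaves a fluorescent-labeled substrate in reaction buffer. Samples were dissolved in DMSO and serially diluted 5-fold in water (five dilutions), then added before the enzyme. Fluorescence of the product was read after incubation; indinavir was the positive control.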

For `C=C1CC2(OS(=O)(=O)[O-])OC3(CC2C(C)C)C(C)CCC13.[Na+]` (stereo not drawn) [Compound 21, Curcumol sodium sulfonate], which “cell status of 12 and 24 h” value (293 cells; 12.5 μg/ml) is on record?
The value was “Good”.

And the “cell status of 12 and 24 h” value (293 cells; 25 μg/ml)?
Its value is “Good”.

What about the “cell status of 12 and 24 h” value (293 cells; 50 μg/ml) of the same compound?
The value was “Good”.

And the “cell status of 12 and 24 h” value (293 cells; 100 μg/ml)?
The value was “Good”.

And the “cell status of 12 and 24 h” value (293 cells; 200 μg/ml)?
The value was “Normal”.

What about the “Cytopathy and cell status, Sample” value (293 cells; 200 μg/ml) of the same compound?
The value was “Normal”.

What about the “inhibition rate, Results (%) SMMC-7721” value ([1]; Table 1) of the same compound?
Its value is −7.26%.

What about the “inhibition rate, Results (%) SMMC-7721” value ([1]; Table 2 (repeated screening)) of the same compound?
The value was −1.82%.

What about the “inhibition rate, Results (%) SMMC-7721” value ([1]; Table 3 (repeated screening)) of the same compound?
Its value is −2.93%.

What about the IC50 [2] of the same compound?
Its IC50 is “— (indicates that the initial concentration of the sample had a inhibition rate of less than 50% against HIV-1 IN.)”.

What about the IC50 [3] of the same compound?
Its IC50 is 1.3 µg/mL.

And the IC50 [4]?
The IC50 was 0.75 µg/mL.

What about the “inhibition rate, Results (%) Bel-7402” value ([5]; Table 1) of the same compound?
The value was 5.36%.

And the “inhibition rate, Results (%) Bel-7402” value ([5]; Table 2 (repeated screening))?
The value was 2.13%.

What about the “inhibition rate, Results (%) Bel-7402” value ([5]; Table 3 (repeated screening)) of the same compound?
Its value is 3.12%.

What about the “inhibition rate, Results (%) MCF-7” value ([6]; Table 1) of the same compound?
Its value is 87.56%.

What about the “inhibition rate, Results (%) MCF-7” value ([6]; Table 2 (repeated screening)) of the same compound?
Its value is 85.23%.

And the “inhibition rate, Results (%) MCF-7” value ([6]; Table 3 (repeated screening))?
The value was 87.58%.

And the “inhibition rate, Results (%) A-549” value ([7]; Table 1)?
Its value is 26.42%.

What about the “inhibition rate, Results (%) A-549” value ([7]; Table 2 (repeated screening)) of the same compound?
The value was 20.01%.

What about the “inhibition rate, Results (%) A-549” value ([7]; Table 3 (repeated screening)) of the same compound?
The value was 1.23%.

What about the “inhibition rate, Results (%) U-937” value ([8]; Table 1) of the same compound?
The value was 92.04%.

And the “inhibition rate, Results (%) U-937” value ([8]; Table 2 (repeated screening))?
Its value is 89.46%.

What about the “inhibition rate, Results (%) U-937” value ([8]; Table 3 (repeated screening)) of the same compound?
The value was 91.45%.

And the “inhibition rate, Results (%) LLC” value ([9]; Table 1)?
Its value is 10.47%.

And the “inhibition rate, Results (%) LLC” value ([9]; Table 2 (repeated screening))?
Its value is 1.89%.

And the “inhibition rate, Results (%) LLC” value ([9]; Table 3 (repeated screening))?
The value was 7.58%.

What about the “inhibition rate, Results (%) Hela” value ([10]; Table 1) of the same compound?
The value was 91.69%.

What about the “inhibition rate, Results (%) Hela” value ([10]; Table 2 (repeated screening)) of the same compound?
The value was 90.11%.

What about the “inhibition rate, Results (%) Hela” value ([10]; Table 3 (repeated screening)) of the same compound?
Its value is 91.67%.

And the IC50 [11]?
Its IC50 is 0.89 µg/mL.

And the Inhibition rate ([12]; 0.08 μg/ml)?
The Inhibition rate was 8.74.

And the Inhibition rate ([12]; 0.40 μg/ml)?
Its Inhibition rate is 14.77.

And the Inhibition rate ([12]; 2.0 μg/ml)?
The Inhibition rate was 5.86.

And the Inhibition rate ([12]; 10 μg/ml)?
The Inhibition rate was 10.16.

And the Inhibition rate ([12]; 50 μg/ml)?
The Inhibition rate was 5.47.

What about the IC50 [12] of the same compound?
Its IC50 is > 148 µM.

Which results are given for `CC(C)C1CC23OC1(O)CC(=CN1CCNCC1)C2CCC3C` (stereo not drawn) [Compound 8, Curcumol piperazine hydrochloride]?
Cytopathy and cell status, Sample (293 cells; 200 μg/ml): Good; inhibition at 50 µg/mL ([1]; Table 1): 4.5%; inhibition at 50 µg/mL ([1]; Table 2 (repeated screening)): 2.3%; inhibition at 50 µg/mL ([1]; Table 3 (repeated screening)): 7.98%; inhibition at 100 µg/mL ([2]; read-out: IC50): < 50%; IC50 [3]: 1.68 µg/mL; IC50 [4]: 0.59 µg/mL; inhibition at 50 µg/mL ([5]; Table 1): 54.3%; inhibition at 50 µg/mL ([5]; Table 2 (repeated screening)): 50.5%; inhibition at 50 µg/mL ([5]; Table 3 (repeated screening)): 54.9%; inhibition at 50 µg/mL ([6]; Table 1): 89.1%; inhibition at 50 µg/mL ([6]; Table 2 (repeated screening)): 85.2%; inhibition at 50 µg/mL ([6]; Table 3 (repeated screening)): 86.2%; inhibition at 50 µg/mL ([7]; Table 1): 60.5%; inhibition at 50 µg/mL ([7]; Table 2 (repeated screening)): 58.6%; inhibition at 50 µg/mL ([7]; Table 3 (repeated screening)): 55.9%; inhibition at 50 µg/mL ([8]; Table 1): 90.3%; inhibition at 50 µg/mL ([8]; Table 2 (repeated screening)): 91.3%; inhibition at 50 µg/mL ([8]; Table 3 (repeated screening)): 94.4%; inhibition at 50 µg/mL ([9]; Table 1): 12.1%; inhibition at 50 µg/mL ([9]; Table 2 (repeated screening)): 1.02%; inhibition at 50 µg/mL ([9]; Table 3 (repeated screening)): 3.12%; inhibition at 50 µg/mL ([10]; Table 1): 91.9%; inhibition at 50 µg/mL ([10]; Table 2 (repeated screening)): 92%; inhibition at 50 µg/mL ([10]; Table 3 (repeated screening)): 91.5%; IC50 [11]: 0.81 µg/mL; inhibition at 0.08 µg/mL ([12]; 0.08 μg/ml, read-out: Inhibition rate): 9.74%; inhibition at 0.4 µg/mL ([12]; 0.40 μg/ml, read-out: Inhibition rate): 2.64%; inhibition at 2 µg/mL ([12]; 2.0 μg/ml, read-out: Inhibition rate): 5.27%; inhibition at 10 µg/mL ([12]; 10 μg/ml, read-out: Inhibition rate): 0.62%; IC50 [12]: > 156 µM; inhibition at 50 µg/mL ([12]; read-out: Inhibition rate, 50 μg/ml): 1.4%
